Reference: patent publication US10189854B2, “Substituted pyrimidine compounds” (Grünenthal GmbH, priority 2014, dated 2019)

biological target: human PDE4B1 (Homo sapiens (Human), UniProt Q07343); assay: cAMP HTRF assay to determine the activity of hPDE4B1; format: biochemical; conditions: IC50 inhibition of PDE4B; human recombinant PDE4B1, cAMP HTRF assay
Method in brief: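 Recombinant human PDE4B1 expressed in Sf9 cells (4.8 U) was incubated with 40 nM cAMP for 30 min at room temperature in Tris buffer, pH 7.8, with MgCl2, DTT and Tween 20. HTRF detection of remaining cAMP followed, with 1 mM IBMX stop, read 60 min later as the 665/620 nm ratio. Results are % inhibition versus control.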

human PDE4B1, sequence (Q07343 whole entry): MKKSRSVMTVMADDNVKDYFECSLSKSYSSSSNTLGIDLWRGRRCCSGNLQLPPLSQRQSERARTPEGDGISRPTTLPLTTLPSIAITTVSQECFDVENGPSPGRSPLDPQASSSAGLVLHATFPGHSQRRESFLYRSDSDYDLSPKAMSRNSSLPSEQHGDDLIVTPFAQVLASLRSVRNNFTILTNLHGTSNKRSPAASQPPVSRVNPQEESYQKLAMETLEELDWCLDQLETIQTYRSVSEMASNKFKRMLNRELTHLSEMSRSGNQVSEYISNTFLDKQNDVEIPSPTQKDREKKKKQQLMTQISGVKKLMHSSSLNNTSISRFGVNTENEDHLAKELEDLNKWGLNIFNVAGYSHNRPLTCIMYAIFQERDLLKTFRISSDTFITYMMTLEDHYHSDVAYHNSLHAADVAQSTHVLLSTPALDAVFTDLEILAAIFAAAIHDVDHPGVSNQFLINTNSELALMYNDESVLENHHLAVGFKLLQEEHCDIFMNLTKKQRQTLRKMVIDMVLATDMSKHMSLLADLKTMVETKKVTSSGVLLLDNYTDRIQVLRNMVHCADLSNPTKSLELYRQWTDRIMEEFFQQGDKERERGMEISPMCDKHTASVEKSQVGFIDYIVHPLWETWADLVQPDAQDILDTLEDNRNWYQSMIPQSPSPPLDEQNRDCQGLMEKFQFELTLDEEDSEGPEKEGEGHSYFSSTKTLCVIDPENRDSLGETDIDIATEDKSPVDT

With `O=C(c1ccc2c(n1)N(c1ncc(-c3ccccc3F)cn1)CC21CC1)N1CCOCC1` [Compound 170, [1-[5-(2-Fluorophenyl)-pyrimidin-2-yl]-spiro[1,2-dihydro-pyrrolo[2,3-b]pyridine-3,1′-cyclopropane]-6-yl]-morpholin-4-yl-methanone] as the compound, how does the IC50 read?
The IC50 was < 0.1 µM.

Which IC50 does the source give for `Cn1ccc(-c2cnc(N3CC4(CC4)c4ccc(C(=O)N5CC[C@@H](N)C5)cc43)nc2)c1` [Compound 172, [(3R)-3-Amino-pyrrolidin-1-yl]-[1-[5-(1-methyl-1H-pyrrol-3-yl)-pyrimidin-2-yl]-spiro[1,2-dihydro-indole-3,1′-cyclopropane]-6-yl]-methanone] here?
The IC50 was < 0.1 µM.

How did the IC50 turn out when `Cn1cc(-c2cnc(N3CC4(CC4)c4ccc(C(=O)N5CC[C@@H](N)C5)cc43)nc2)cn1` [Compound 173, [(3R)-3-Amino-pyrrolidin-1-yl]-[1-[5-(1-methyl-1H-pyrazol-4-yl)-pyrimidin-2-yl]-spiro[1,2-dihydro-indole-3,1′-cyclopropane]-6-yl]-methanone] was run?
The IC50 was < 0.1 µM.

With `CN(C)C(=O)c1ccc2c(c1)N(c1ncc(-c3cccnc3F)cn1)CC21CC1` [Compound 174, 1-[5-(2-Fluoro-pyridin-3-yl)-pyrimidin-2-yl]-N,N-dimethyl-spiro[1,2-dihydro-indole-3,1′-cyclopropane]-6-carboxylic acid amide] as the compound, how does the IC50 read?
Its IC50 is < 0.1 µM.

`O=C(c1ccc2c(c1)N(c1ncc(-c3ccccn3)cn1)CC21CC1)N1CCCC1` [Compound 175, [1-(5-Pyridin-2-yl-pyrimidin-2-yl)-spiro[1,2-dihydro-indole-3,1′-cyclopropane]-6-yl]-pyrrolidin-1-yl-methanone] was tested. Which IC50 did it give?
Its IC50 is < 0.1 µM.

Which IC50 does the source give for `O=C1CN(C(=O)c2ccc3c(c2)N(c2ncc(-c4cccnc4F)cn2)CC32CC2)CCN1` [Compound 176, 4-[1-[5-(2-Fluoro-pyridin-3-yl)-pyrimidin-2-yl]-spiro[1,2-dihydro-indole-3,1′-cyclopropane]-6-carbonyl]-piperazin-2-one] here?
Its IC50 is < 0.1 µM.

How did the IC50 turn out when `COc1ccsc1-c1cnc(N2CC3(CC3)c3ccc(C(=O)N4CCNC(=O)C4)cc32)nc1` [Compound 177, 4-[1-[5-(3-Methoxy-thiophen-2-yl)-pyrimidin-2-yl]-spiro[1,2-dihydro-indole-3,1′-cyclopropane]-6-carbonyl]-piperazin-2-one] was run?
The IC50 was < 0.1 µM.

For `O=C(c1ccc2c(c1)N(c1ncc(Cc3ccccc3F)cn1)CC21CC1)N1CCOCC1` [Compound 178, [1-[5-[(2-Fluorophenyl)-methyl]-pyrimidin-2-yl]-spiro[1,2-dihydro-indole-3,1′-cyclopropane]-6-yl]-morpholin-4-yl-methanone], which IC50 is on record?
Its IC50 is 0.1 to 1 µM.

Which IC50 does the source give for `O=C(c1ccc2c(c1)N(c1ncc(Oc3ccccc3F)cn1)CC21CC1)N1CCOCC1` [Compound 179, [1-[5-(2-Fluoro-phenoxy)-pyrimidin-2-yl]-spiro[1,2-dihydro-indole-3,1′-cyclopropane]-6-yl]-morpholin-4-yl-methanone] here?
Its IC50 is 0.1 to 1 µM.

For `O=C1CN(C(=O)c2ccc3c(c2)N(c2ncc(-c4ccccn4)cn2)CC32CC2)CCN1` [Compound 180, 4-[1-(5-Pyridin-2-yl-pyrimidin-2-yl)-spiro[1,2-dihydro-indole-3,1′-cyclopropane]-6-carobnyl]-piperazin-2-one], which IC50 is on record?
Its IC50 is < 0.1 µM.

Which IC50 does the source give for `COc1ccnc(-c2cnc(N3CC4(CC4)c4ccc(C(=O)N5CCOCC5)cc43)nc2)c1` [Compound 182, [1-[5-(4-Methoxy-pyridin-2-yl)-pyrimidin-2-yl]-spiro[1,2-dihdyro-indole-3,1′-cyclopropane]-6-yl]-morpholin-4-yl-methanone] here?
Its IC50 is < 0.1 µM.

With `Cc1ccnc(-c2cnc(N3CC4(CC4)c4ccc(C(=O)N5CCOCC5)cc43)nc2)c1` [Compound 192, [1-[5-(4-Methyl-pyridin-2-yl)-pyrimidin-2-yl]-spiro[1,2-dihydro-indole-3,1′-cyclopropane]-6-yl]-morpholin-4-yl-methanone] as the compound, how does the IC50 read?
Its IC50 is < 0.1 µM.

How did the IC50 turn out when `CN(CCO)C(=O)c1ccc2c(c1)N(c1ncc(-c3cnn(C)c3)cn1)CC21CC1` [Compound 199, N-(2-Hydorxy-ethyl)-N-methyl-1-[5-(1-methyl-1H-pyrazol-4-yl)-pyrimidin-2-yl]-spiro[1,2-dihydro-indole-3,1′-cyclopropane]-6-carboxylic acid amide] was run?
The IC50 was < 0.1 µM.

Which IC50 does the source give for `CC(C)(O)c1ccc(-c2cnc(N3CC4(CC4)c4ccc(C(=O)N5CCOCC5)cc43)nc2)s1` [Compound 207, [1-[5-[5-(1-Hydroxy-1-methyl-ethyl)-thiophen-2-yl]-pyrimidin-2-yl]-spiro[1,2-dihydro-indole-3,1′-cyclopropane]-6-yl]-morpholin4--yl-methanone] here?
The IC50 was < 0.1 µM.

`CN(C)c1ccnc(-c2cnc(N3CC4(CC4)c4ccc(C(=O)N5CCOCC5)cc43)nc2)c1` [Compound 208, [1-[5-(4-Dimethylamino-pyridin-2-yl)-pyrimidin-2-yl]-spiro[1,2-dihydro-indole-3,1′-cyclopropane]-6-yl]-morpholin-4-yl-methanone] was tested. Which IC50 did it give?
The IC50 was < 0.1 µM.

How did the IC50 turn out when `Cc1ccnc(-c2cnc(N3CC4(CC4)c4ccc(C(=O)N(C)CCO)cc43)nc2)c1` [Compound 210, N-(2-Hydroxy-ethyl)-N-methyl-1-[5-(4-methyl-pyridin-2-yl)-pyrimidin-2-yl]-spiro[1,2-dihydro-indole-3,1′-cyclopropane]-6-carboxylic acid amide] was run?
Its IC50 is < 0.1 µM.

How did the IC50 turn out when `COc1cccc(-c2cnc(N3CC4(CC4)c4ccc(C(=O)N(C)CCO)cc43)nc2)n1` [Compound 211, N-(2-Hydroxy-ethyl)-1-[5-(6-methoxy-pyridin-2-yl)-pyrimidin-2-yl]-N-methyl-spiro[1,2-dihydro-indole-3,1′-cyclopropane]-6-carboxylic acid amide] was run?
The IC50 was < 0.1 µM.

For `COc1cccc(-c2cnc(N3CC4(CC4)c4ccc(C(=O)N5CC6CC5CN6)cc43)nc2)c1` (stereo not shown) [Compound 212, (2,5-Diazabicyclo[2.2.1]heptan-2-yl)-[1-[5-(3-methoxyphenyl)-pyrimidin-2-yl]-spiro[1,2-dihydro-indole-3,1′-cyclopropane]-6-yl]-methanone; 2,2,2-trifluoro-acetic acid], which IC50 is on record?
Its IC50 is < 0.1 µM.

How did the IC50 turn out when `Cc1cc(-c2cnc(N3CC4(CC4)c4ccc(C(=O)N(C)CCO)cc43)nc2)ccn1` [Compound 214, N-(2-Hydroxy-ethyl)-N-methyl-1-[5-(2-methyl-pyridin-4-yl)-pyrimidin-2-yl]-spiro[1,2-dihydro-indole-3,1′-cyclopropane]-6-carboxylic acid amide] was run?
The IC50 was < 0.1 µM.

`O=C(O)C1CCN(C(=O)c2ccc3c(c2)N(c2ncc(-c4ccccc4F)cn2)CC32CC2)CC1` [Compound 215, 1-[1-[5-(2-Fluorophenyl)-pyrimidin-2-yl]-spiro[1,2-dihydro-indole-3,1′-cyclopropane]-6-carbonyl]-piperidine-4-carboxylic acid] was tested. Which IC50 did it give?
Its IC50 is 1 to 10 µM.

Which IC50 does the source give for `NC(=O)C1CCN(C(=O)c2ccc3c(c2)N(c2ncc(-c4ccccc4F)cn2)CC32CC2)CC1` [Compound 216, 1-[1-[5-(2-Fluorophenyl)-pyrimidin-2-yl]-spiro[1,2-dihydro-indole-3,1′-cyclopropane]-6-carbonyl]-piperidine-4-carboxylic acid amide] here?
Its IC50 is 1 to 10 µM.

For `COCC1CCN(C(=O)c2ccc3c(c2)N(c2ncc(-c4ccccc4F)cn2)CC32CC2)CC1` [Compound 217, [1-[5-(2-Fluorophenyl)-pyrimidin-2-yl]-spiro[1,2-dihydro-indole-3,1′-cyclopropane]-6-yl]-[4-(methoxymethyl)-piperidin-1-yl]-methanone], which IC50 is on record?
The IC50 was 1 to 10 µM.
